Format in all cases: cell-based
Holding throughout (settings): CreLuc reporter gene assay
(A reporter such as luciferase makes a cellular process visible.)

The target of test [1] is T1, hGIPR (Homo sapiens, UniProt P48546).
T1 construct: expressed in transfected cells; host or cells: CHO cells carrying a CRE-luciferase reporter gene
T1 sequence (P48546 22-466): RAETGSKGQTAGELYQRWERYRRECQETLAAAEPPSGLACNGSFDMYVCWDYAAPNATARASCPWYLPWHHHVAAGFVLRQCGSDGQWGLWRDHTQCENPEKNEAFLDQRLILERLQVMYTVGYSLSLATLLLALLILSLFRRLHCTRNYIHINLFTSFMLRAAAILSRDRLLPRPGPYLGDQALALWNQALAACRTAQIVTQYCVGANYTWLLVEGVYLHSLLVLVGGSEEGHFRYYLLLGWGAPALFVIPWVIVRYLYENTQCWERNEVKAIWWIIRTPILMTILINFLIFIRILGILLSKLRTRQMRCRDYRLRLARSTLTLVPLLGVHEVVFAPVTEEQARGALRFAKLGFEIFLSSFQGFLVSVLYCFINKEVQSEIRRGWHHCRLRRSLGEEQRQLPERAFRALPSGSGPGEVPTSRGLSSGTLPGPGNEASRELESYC
In words: hGIPR CreLuc reporter gene assay in 0.5% and 100% plasma. The procedure, abridged:
(§1)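 Agonist EC50s came from 8-concentration curves over four decades, fitted by non-linear variable-slope regression of CRE-driven luciferase luminescence. Cells were exposed 4 h at 37 °C, in buffer with 0.5% human plasma or in 100% plasma; GIPR was expressed in CHO cells, GLP-1R and NPY2R in HEK cells.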

In test [2] the target is T2, hNPY2R (Homo sapiens, UniProt P49146).
T2 construct: expressed in transfected cells; host or cells: HEK-293 cells carrying a CRE-luciferase reporter gene
T2 sequence (P49146 1-381): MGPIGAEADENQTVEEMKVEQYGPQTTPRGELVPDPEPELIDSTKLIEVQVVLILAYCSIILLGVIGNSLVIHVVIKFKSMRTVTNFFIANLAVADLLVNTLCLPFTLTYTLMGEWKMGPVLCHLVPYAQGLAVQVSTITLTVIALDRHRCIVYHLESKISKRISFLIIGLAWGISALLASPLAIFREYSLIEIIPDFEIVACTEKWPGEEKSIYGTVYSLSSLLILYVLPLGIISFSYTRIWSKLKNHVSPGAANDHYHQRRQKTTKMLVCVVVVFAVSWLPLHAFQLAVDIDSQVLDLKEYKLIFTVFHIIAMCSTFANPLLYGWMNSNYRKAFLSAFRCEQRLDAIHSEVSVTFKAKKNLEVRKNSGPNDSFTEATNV
In words: hNPY2R CreLuc reporter gene assay in 0.5% and 100% plasma. The essentials:
as §1

In test [3] the target is T3, hGLP1R (Homo sapiens, UniProt P43220).
T3 construct: expressed in transfected cells; host or cells: HEK-293 cells carrying a CRE-luciferase reporter gene
As to the kind of experiment: hGLP1R CreLuc reporter gene assay in 0.5% and 100% plasma. The procedure, abridged:
as §1

Setting [4] is: 0.5% human plasma, read-out: hGIPR 0.5% hP.
Setting [5] is: 100% human plasma, read-out: hGIPR 100% hP.
[6] abbreviates: 100% human plasma, read-out: hNPY2R 100% hP.
Where [7] appears, read: 0.5% human plasma, read-out: hGLP1R 0.5% hP.
The mark [8] stands for this setting: 0.5% human plasma, read-out: hNPY2R 0.5% hP.
Setting [9] is: 100% human plasma, read-out: hGLP1R 100% hP.

The values below come from US20240247080A1, “GLP1/GIP/NPY2 RECEPTOR TRIPLE AGONISTS” (Boehringer Ingelheim International GmbH, priority 2022, published 2024).

Read-outs that look alike come from different tables or passages of the source. Starred links: 1 amine or outer side, 2 acyl side, 3 side chain; linkers in the order of their positions; H or OH if unused. Non-standard residues stand in square brackets, D forms with d. Groups on a side chain read outwards from the residue. *: point of attachment. C20 diacid = O=C(O)CCCCCCCCCCCCCCCCCCC(=O)*; C18 diacid = O=C(O)CCCCCCCCCCCCCCCCC(=O)*; γGlu = O=C(O)[C@H](CCC(=O)[*:2])N[*:1]; εLys = N[C@@H](CCCCN[*:1])C(=O)[*:2]; AEEA = NCCOCCOCC(=O)O; Aib = CC(C)(N)C(=O)O Bounds are passed on as bounds.

T3 sequence (P43220 24-463): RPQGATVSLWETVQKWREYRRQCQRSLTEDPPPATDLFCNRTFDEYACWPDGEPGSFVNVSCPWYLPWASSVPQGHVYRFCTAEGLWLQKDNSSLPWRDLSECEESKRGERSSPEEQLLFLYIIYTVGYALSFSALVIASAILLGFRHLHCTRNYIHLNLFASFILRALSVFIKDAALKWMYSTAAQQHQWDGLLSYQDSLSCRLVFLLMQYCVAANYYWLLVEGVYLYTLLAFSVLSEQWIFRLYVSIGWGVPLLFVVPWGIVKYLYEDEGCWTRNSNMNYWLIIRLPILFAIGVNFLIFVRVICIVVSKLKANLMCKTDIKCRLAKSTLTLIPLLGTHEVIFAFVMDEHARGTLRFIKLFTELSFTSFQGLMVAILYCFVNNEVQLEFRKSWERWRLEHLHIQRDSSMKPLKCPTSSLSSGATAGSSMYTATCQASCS

On to `CC[C@H](C)[C@H](NC(=O)[C@H](CC(C)C)NC(=O)[C@H](Cc1c[nH]c2ccccc12)NC(=O)[C@H](CCC(=O)O)NC(=O)[C@@H](NC(=O)[C@H](Cc1ccccc1)NC(=O)[C@H](C)NC(=O)C(C)(C)NC(=O)[C@H](CCC(N)=O)NC(=O)[C@H](C)NC(=O)[C@H](CCC(N)=O)NC(=O)[C@H](CCCCN)NC(=O)[C@H](CCC(=O)O)NC(=O)[C@H](CC(C)C)NC(=O)C(C)(C)NC(=O)[C@@H](NC(=O)[C@H](CO)NC(=O)[C@H](Cc1ccc(O)cc1)NC(=O)[C@H](CC(=O)O)NC(=O)[C@H](CO)NC(=O)[C@@H](NC(=O)[C@H](Cc1ccccc1)NC(=O)[C@@H](NC(=O)CNC(=O)[C@H](CCC(=O)O)NC(=O)C(C)(C)NC(=O)[C@@H](N)Cc1ccc(O)cc1)[C@@H](C)O)[C@@H](C)O)[C@@H](C)CC)C(C)C)C(=O)N[C@@H](CCCCNC(=O)[C@@H](N)CCCCNC(=O)CC[C@H](NC(=O)CC[C@H](NC(=O)CC[C@H](NC(=O)CC[C@H](NC(=O)CC[C@H](NC(=O)CC[C@H](NC(=O)CCCCCCCCCCCCCCCCCCC(=O)O)C(=O)O)C(=O)O)C(=O)O)C(=O)O)C(=O)O)C(=O)O)C(=O)NCC(=O)NCC(=O)N1CCC[C@H]1C(=O)N[C@@H](CO)C(=O)N[C@@H](CCC(=O)O)C(=O)N1CCC[C@H]1C(=O)N[C@@H](CCC(=O)O)C(=O)N[C@@H](CO)C(=O)N[C@@H](CC(C)C)C(=O)N[C@@H](CCCNC(=N)N)C(=O)N[C@@H](Cc1c[nH]cn1)C(=O)N[C@@H](Cc1ccc(O)cc1)C(=O)N[C@@H](Cc1ccc(O)cc1)C(=O)N[C@@H](CC(N)=O)C(=O)N[C@@H](Cc1c[nH]c2ccccc12)C(=O)N[C@@H](CC(C)C)C(=O)N[C@H](C(=O)N[C@@H](CCCNC(=N)N)C(=O)N[C@@H](CCC(N)=O)C(=O)N[C@@H](CCCNC(=N)N)C(=O)N[C@@H](Cc1ccc(O)cc1)C(N)=O)[C@@H](C)O` [Compound 122, Y-Aib-E-G-T-F-T-S-D-Y-S-I-Aib-L-E-K-Q-A-Q-Aib-A-F-V-E-W-L-I-K(1,3)-GGPSEPESLRHYYNWLTRQRY-NH2.C20DA-gGlu-gGlu-gGlu-gGlu-gGlu-gGlu-eLys(1,2)], for which the EC50 in test [1] (setting [4]) is 0.08 nM; in test [1] (setting [5]), 1.53 nM; in test [2] (setting [6]), 78.9 nM; in test [3] (setting [7]) it was 0.22 nM.

For “H-Y[Aib]EGTFTSDYSI[Aib]LEKQAQ[Aib]AFVEWLIK([AEEA-AEEA-γGlu-γGlu-γGlu-γGlu-γGlu-C20 diacid])GGPSSGASLRHYYNWLTRQRY-NH2 [Compound 229, Y-Aib-E-G-T-F-T-S-D-Y-S-I-Aib-L-E-K-Q-A-Q-Aib-A-F-V-E-W-L-I-K(1,3)-GGPSSGASLRHYYNWLTRQRY-NH2.C20DA-gGlu-gGlu-gGlu-gGlu-gGlu-OEG-OEG(1,2)]”, the EC50 amounted to 0.22 nM in test [1] (setting [4]); 1.42 nM in test [1] (setting [5]); 10.8 nM in test [2] (setting [8]); 27.2 nM in test [2] (setting [6]); 0.1 nM in test [3] (setting [7]).

As to “H-Y[Aib]EGTFTSDYSI[Aib]LEKQAQ[Aib]AFVQWLIK([εLys-γGlu-γGlu-γGlu-γGlu-γGlu-C18 diacid])GGPEEGASLRHYYNWLTRQRY-NH2 [Compound 143, Y-Aib-E-G-T-F-T-S-D-Y-S-I-Aib-L-E-K-Q-A-Q-Aib-A-F-V-Q-W-L-I-K(1,3)-GGPEEGASLRHYYNWLTRQRY-NH2.C18DA-gGlu-gGlu-gGlu-gGlu-gGlu-eLys(1,2)]”, the EC50 turned out to be 0.22 nM in test [1] (setting [4]); 13.1 nM in test [2] (setting [8]); 42.2 nM in test [2] (setting [6]); 0.13 nM in test [3] (setting [7]); 4.24 nM in test [3] (setting [9]).

In the case of `CC[C@H](C)[C@H](NC(=O)[C@H](CC(C)C)NC(=O)[C@H](Cc1c[nH]c2ccccc12)NC(=O)[C@H](CCC(=O)O)NC(=O)[C@@H](NC(=O)[C@H](Cc1ccccc1)NC(=O)[C@H](C)NC(=O)C(C)(C)NC(=O)[C@H](CCC(N)=O)NC(=O)[C@H](C)NC(=O)[C@H](CCC(N)=O)NC(=O)[C@H](CCCCN)NC(=O)[C@H](CCC(=O)O)NC(=O)[C@H](CC(C)C)NC(=O)C(C)(C)NC(=O)[C@@H](NC(=O)[C@H](CO)NC(=O)[C@H](Cc1ccc(O)cc1)NC(=O)[C@H](CC(=O)O)NC(=O)[C@H](CO)NC(=O)[C@@H](NC(=O)[C@H](Cc1ccccc1)NC(=O)[C@@H](NC(=O)CNC(=O)[C@H](CCC(=O)O)NC(=O)C(C)(C)NC(=O)[C@@H](N)Cc1ccc(O)cc1)[C@@H](C)O)[C@@H](C)O)[C@@H](C)CC)C(C)C)C(=O)N[C@@H](CCCCNC(=O)[C@@H](N)CCCCNC(=O)CC[C@H](NC(=O)CC[C@H](NC(=O)CC[C@H](NC(=O)CC[C@H](NC(=O)CC[C@H](NC(=O)CC[C@H](NC(=O)CCCCCCCCCCCCCCCCCCC(=O)O)C(=O)O)C(=O)O)C(=O)O)C(=O)O)C(=O)O)C(=O)O)C(=O)NCC(=O)NCC(=O)N1CCC[C@H]1C(=O)N[C@@H](CO)C(=O)N[C@@H](CO)C(=O)NCC(=O)N[C@@H](C)C(=O)N[C@@H](CO)C(=O)N[C@@H](CC(C)C)C(=O)N[C@@H](CCCNC(=N)N)C(=O)N[C@H](Cc1c[nH]cn1)C(=O)N[C@@H](Cc1ccc(O)cc1)C(=O)N[C@@H](Cc1ccc(O)cc1)C(=O)N[C@@H](CC(N)=O)C(=O)N[C@@H](Cc1c[nH]c2ccccc12)C(=O)N[C@@H](CC(C)C)C(=O)N[C@H](C(=O)N[C@H](CCCNC(=N)N)C(=O)N[C@@H](CCC(N)=O)C(=O)N[C@@H](CCCNC(=N)N)C(=O)N[C@H](Cc1ccc(O)cc1)C(N)=O)[C@@H](C)O` [Compound 21, Y-Aib-E-G-T-F-T-S-D-Y-S-I-Aib-L-E-K-Q-A-Q-Aib-A-F-V-E-W-L-I-K(1,3)-G-G-P-S-S-G-A-S-L-R-DHis-Y-Y-N-W-L-T-DArg-Q-R-DTyr-NH2.C20DA-gGlu-gGlu-gGlu-gGlu-gGlu-gGlu-eLys(1,2)], the EC50 in test [1] (setting [4]) was 0.14 nM; in test [1] (setting [5]) it was 0.87 nM; in test [2] (setting [8]), over 99.9 nM; in test [2] (setting [6]), over 999 nM; in test [3] (setting [7]) it was 0.11 nM; in test [3] (setting [9]), 1.66 nM.

With “H-Y[Aib]EGTFTSDYSI[Aib]LEKQAQ[Aib]AFVQWLIK([AEEA-AEEA-γGlu-γGlu-γGlu-γGlu-γGlu-C18 diacid])GGPSEPASLRHYYNWLTRQRY-NH2 [Compound 142, Y-Aib-E-G-T-F-T-S-D-Y-S-I-Aib-L-E-K-Q-A-Q-Aib-A-F-V-Q-W-L-I-K(1,3)-GGPSEPASLRHYYNWLTRQRY-NH2.C18DA-gGlu-gGlu-gGlu-gGlu-gGlu-OEG-OEG(1,2)]”, the EC50 in test [1] (setting [4]) was 0.28 nM; in test [1] (setting [5]) it was 1.15 nM; in test [2] (setting [8]), 13 nM; in test [2] (setting [6]), 28.2 nM; in test [3] (setting [7]), 0.12 nM.

For “H-Y[Aib]EGTFTSDYSI[Aib]LEKQAQ[Aib]AFVQWLIK([εLys-γGlu-γGlu-γGlu-γGlu-γGlu-C18 diacid])GGPSEGASLRHYYNWLTRQRY-NH2 [Compound 267, Y-Aib-E-G-T-F-T-S-D-Y-S-I-Aib-L-E-K-Q-A-Q-Aib-A-F-V-Q-W-L-I-K(1,3)-GGPSEGASLRHYYNWLTRQRY-NH2.C18DA-gGlu-gGlu-gGlu-gGlu-gGlu-eLys(1,2)]”, the EC50 in test [1] (setting [4]) came to 0.12 nM; in test [1] (setting [5]) it was 1.18 nM; in test [2] (setting [6]), 27.6 nM; in test [3] (setting [7]), 0.07 nM.
